Assay results taken from the kinase profiling compilation of Christmann-Franck et al. (2016).

Key:
Assay in all cases: KINOMEscan competition binding
Details in all cases: compound 10.0 µM
[1] = system: KIT (human), P10721 [D816H]
[2] = target: ACVRL1 (human) (UniProt P37023)
[3] = target: CSNK1D (human) (UniProt P48730)
[4] = target: MAPK1 (human) (UniProt P28482)
[5] = target: FGFR1 (human) (UniProt P11362)
[6] = target: CHEK1 (human) (UniProt O14757)
[7] = target: MAST1 (human) (UniProt Q9Y2H9)
[8] = target: DCLK3 (human) (UniProt Q9C098)
[9] = target: CSNK1G3 (human) (UniProt Q9Y6M4)
[10] = target: CSNK1A1 (human) (UniProt P48729)
CSNK1A1 (human), sequence (P48729 whole entry, looked up): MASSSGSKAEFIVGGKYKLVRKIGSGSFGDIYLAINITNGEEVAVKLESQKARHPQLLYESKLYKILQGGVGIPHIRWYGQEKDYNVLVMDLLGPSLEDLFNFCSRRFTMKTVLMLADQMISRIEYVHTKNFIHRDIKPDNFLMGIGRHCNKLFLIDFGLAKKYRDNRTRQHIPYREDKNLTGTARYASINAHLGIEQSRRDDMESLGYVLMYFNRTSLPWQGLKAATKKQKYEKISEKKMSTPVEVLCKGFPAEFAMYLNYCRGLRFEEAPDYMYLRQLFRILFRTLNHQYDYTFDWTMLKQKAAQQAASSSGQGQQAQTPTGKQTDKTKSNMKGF

[11] = target: NLK (human) (UniProt Q9UBE8)
NLK (human), sequence (Q9UBE8 whole entry, looked up): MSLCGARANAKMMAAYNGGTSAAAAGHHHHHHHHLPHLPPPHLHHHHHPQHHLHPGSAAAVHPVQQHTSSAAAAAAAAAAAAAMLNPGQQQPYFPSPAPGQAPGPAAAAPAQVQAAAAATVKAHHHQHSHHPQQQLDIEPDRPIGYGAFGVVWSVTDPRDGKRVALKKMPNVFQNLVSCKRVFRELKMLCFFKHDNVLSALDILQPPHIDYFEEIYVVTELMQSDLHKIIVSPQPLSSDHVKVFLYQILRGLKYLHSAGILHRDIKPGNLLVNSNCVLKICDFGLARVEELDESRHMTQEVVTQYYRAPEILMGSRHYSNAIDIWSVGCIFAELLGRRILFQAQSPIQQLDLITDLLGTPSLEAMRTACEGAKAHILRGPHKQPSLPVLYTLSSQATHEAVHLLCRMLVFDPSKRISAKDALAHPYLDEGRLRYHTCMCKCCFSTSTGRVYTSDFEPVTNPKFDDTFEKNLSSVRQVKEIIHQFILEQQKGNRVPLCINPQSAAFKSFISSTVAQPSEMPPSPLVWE

[12] = target: TEC (human) (UniProt P42680)
[13] = target: MAP4K5 (human) (UniProt Q9Y4K4)
[14] = target: STK16 (human) (UniProt O75716)
STK16 (human), sequence (O75716 whole entry, looked up): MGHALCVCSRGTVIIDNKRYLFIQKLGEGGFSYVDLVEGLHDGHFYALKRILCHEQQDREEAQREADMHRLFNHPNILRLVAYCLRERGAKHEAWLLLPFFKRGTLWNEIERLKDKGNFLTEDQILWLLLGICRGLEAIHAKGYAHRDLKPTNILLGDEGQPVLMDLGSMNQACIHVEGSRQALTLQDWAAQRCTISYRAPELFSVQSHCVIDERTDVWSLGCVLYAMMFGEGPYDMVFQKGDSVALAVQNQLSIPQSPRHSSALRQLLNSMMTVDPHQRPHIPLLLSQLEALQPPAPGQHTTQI

[15] = target: LCK (human) (UniProt P06239)
LCK (human), sequence (P06239 whole entry, looked up): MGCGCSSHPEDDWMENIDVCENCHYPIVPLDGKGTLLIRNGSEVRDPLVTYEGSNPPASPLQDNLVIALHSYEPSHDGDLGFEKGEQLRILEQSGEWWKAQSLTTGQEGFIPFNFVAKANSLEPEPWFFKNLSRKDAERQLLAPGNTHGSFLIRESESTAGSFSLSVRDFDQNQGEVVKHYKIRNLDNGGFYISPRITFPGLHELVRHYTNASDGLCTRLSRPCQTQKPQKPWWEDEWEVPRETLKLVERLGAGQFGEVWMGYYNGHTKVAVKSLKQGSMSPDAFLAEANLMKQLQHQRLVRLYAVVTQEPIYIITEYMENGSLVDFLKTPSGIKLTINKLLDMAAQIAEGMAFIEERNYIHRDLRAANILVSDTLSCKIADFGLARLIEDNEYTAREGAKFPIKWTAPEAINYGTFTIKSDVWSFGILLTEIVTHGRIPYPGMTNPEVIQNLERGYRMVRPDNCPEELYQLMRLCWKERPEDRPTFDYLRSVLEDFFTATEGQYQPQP

[16] = target: RIOK1 (human) (UniProt Q9BRS2)
[17] = target: PAK7 (human) (UniProt Q9P286)
[18] = target: ACVR2B (human) (UniProt Q13705)
[19] = target: CSNK2A2 (human) (UniProt P19784)
CSNK2A2 (human), sequence (P19784 whole entry, looked up): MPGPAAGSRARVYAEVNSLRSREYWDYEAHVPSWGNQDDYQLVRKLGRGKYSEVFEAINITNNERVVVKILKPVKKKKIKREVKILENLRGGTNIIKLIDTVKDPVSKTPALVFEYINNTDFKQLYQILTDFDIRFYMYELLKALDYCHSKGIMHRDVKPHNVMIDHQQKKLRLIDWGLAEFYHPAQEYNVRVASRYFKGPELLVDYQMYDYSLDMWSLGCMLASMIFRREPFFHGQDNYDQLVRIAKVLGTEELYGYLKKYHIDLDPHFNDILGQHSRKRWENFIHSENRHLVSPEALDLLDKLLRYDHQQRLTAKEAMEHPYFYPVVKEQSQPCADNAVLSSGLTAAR

[20] = target: RIPK1 (human) (UniProt Q13546)
[21] = system: CPK1 (P.falciparum)
[22] = target: EPHA4 (human) (UniProt P54764)
[23] = target: BLK (human) (UniProt P51451)
[24] = target: STK33 (human) (UniProt Q9BYT3)
[25] = target: EPHB4 (human) (UniProt P54760)
EPHB4 (human), sequence (P54760 whole entry, looked up): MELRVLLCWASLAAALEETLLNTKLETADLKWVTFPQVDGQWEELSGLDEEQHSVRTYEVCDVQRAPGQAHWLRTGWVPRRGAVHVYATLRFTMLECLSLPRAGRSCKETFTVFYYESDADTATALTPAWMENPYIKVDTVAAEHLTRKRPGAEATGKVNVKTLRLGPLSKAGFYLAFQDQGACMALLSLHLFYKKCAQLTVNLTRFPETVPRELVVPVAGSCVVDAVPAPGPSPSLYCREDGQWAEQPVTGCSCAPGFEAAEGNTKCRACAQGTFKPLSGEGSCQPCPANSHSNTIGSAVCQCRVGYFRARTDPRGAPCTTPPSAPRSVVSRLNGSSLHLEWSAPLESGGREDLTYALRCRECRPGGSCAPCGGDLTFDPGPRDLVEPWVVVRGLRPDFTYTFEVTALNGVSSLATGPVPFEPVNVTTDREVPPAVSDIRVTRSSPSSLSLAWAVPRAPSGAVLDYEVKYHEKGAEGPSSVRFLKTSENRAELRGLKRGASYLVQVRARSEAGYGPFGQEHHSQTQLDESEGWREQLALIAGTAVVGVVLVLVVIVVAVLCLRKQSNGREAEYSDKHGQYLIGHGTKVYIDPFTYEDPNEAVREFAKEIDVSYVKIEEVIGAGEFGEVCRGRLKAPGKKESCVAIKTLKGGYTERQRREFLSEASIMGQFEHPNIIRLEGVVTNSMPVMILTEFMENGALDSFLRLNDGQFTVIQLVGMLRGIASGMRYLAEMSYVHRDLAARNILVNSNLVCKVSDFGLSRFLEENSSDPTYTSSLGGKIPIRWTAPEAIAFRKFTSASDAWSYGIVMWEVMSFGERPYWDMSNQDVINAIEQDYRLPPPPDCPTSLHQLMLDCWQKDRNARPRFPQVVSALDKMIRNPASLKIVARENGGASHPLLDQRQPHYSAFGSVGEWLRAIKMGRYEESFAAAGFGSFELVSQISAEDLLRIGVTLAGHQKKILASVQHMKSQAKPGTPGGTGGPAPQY

[26] = target: PAK2 (human) (UniProt Q13177)
[27] = target: PLK4 (human) (UniProt O00444)
PLK4 (human), sequence (O00444 whole entry, looked up): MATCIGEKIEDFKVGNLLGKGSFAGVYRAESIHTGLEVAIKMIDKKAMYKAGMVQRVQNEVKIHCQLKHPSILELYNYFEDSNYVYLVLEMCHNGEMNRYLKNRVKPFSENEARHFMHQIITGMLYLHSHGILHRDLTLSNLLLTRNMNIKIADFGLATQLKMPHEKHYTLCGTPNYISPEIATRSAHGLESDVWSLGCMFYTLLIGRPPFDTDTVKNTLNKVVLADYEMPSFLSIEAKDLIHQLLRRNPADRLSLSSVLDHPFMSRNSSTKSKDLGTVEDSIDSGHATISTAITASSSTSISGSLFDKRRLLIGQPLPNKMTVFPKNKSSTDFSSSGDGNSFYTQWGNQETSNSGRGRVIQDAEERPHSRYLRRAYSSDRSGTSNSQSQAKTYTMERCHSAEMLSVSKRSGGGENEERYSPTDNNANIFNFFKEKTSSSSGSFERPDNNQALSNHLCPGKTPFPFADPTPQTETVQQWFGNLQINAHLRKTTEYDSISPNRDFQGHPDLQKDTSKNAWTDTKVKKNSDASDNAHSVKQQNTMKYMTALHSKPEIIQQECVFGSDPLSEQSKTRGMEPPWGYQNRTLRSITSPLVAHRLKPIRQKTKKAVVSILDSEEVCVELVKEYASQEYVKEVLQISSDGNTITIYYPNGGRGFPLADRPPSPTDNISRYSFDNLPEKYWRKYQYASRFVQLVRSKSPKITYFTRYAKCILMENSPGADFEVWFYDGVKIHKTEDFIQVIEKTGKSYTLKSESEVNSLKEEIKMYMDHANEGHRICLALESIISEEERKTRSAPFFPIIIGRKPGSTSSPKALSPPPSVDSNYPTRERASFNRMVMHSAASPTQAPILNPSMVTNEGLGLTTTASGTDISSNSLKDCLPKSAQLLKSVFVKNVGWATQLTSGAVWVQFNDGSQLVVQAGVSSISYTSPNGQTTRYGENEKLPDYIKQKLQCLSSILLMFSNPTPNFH

[28] = target: ADCK4 (human) (UniProt Q96D53)
ADCK4 (human), sequence (Q96D53 whole entry, looked up): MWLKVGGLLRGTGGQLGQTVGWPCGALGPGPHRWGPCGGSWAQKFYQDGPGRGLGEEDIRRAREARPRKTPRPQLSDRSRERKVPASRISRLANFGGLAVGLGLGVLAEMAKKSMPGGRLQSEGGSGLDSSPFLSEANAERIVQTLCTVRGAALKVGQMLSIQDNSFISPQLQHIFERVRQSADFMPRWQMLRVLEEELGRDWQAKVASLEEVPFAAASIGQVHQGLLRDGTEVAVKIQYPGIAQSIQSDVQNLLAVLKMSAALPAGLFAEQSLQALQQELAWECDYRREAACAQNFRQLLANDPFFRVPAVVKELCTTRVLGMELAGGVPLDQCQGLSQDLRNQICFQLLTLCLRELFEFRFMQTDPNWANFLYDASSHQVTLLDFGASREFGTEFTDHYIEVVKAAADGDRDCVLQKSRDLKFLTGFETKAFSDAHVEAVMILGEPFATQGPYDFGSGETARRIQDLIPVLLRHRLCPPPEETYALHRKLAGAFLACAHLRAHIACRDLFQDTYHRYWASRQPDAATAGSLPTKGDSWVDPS

[29] = target: PTK2B (human) (UniProt Q14289)
[30] = target: MYO3B (human) (UniProt Q8WXR4)
[31] = target: EPHB2 (human) (UniProt P29323)
[32] = target: AURKC (human) (UniProt Q9UQB9)
[33] = target: CDK4 CCND3 (human) (UniProt P11802+P30281)
[34] = target: CDK8 (human) (UniProt P49336)
CDK8 (human), sequence (P49336 whole entry, looked up): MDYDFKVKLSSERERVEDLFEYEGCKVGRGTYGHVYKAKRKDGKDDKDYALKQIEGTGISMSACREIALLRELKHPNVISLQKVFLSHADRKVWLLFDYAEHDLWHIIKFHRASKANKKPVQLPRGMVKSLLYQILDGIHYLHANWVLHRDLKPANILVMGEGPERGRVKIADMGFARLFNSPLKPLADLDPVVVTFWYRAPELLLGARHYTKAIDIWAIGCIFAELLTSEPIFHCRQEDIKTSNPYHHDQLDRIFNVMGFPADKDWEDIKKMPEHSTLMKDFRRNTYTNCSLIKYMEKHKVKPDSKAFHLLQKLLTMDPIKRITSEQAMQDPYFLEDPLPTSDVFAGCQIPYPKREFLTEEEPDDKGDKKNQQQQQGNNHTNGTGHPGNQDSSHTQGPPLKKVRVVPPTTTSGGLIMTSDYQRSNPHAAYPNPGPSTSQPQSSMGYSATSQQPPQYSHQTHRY

[35] = system: PIK3CA (human), P42336 [M1043I]

Molecule CC1=C(C(=O)Nc2cc3cn[nH]c3cc2F)C(c2ccc(C(F)(F)F)cc2)CC(=O)N1 (stereo not given) has a kinase still bound, per cent of control [1] of 69%, a kinase still bound, per cent of control [2] of 100% and a kinase still bound, per cent of control [3] of 92%. For the same molecule, the kinase still bound, per cent of control [4] was 50%, the kinase still bound, per cent of control [5] was 73% and the kinase still bound, per cent of control [6] was 100%. The kinase still bound, per cent of control [7] was 77%, the kinase still bound, per cent of control [8] was 70% and the kinase still bound, per cent of control [9] was 90%. It also gave a kinase still bound, per cent of control [10] of 86%, a kinase still bound, per cent of control [11] of 92% and a kinase still bound, per cent of control [12] of 19%. It also gave a kinase still bound, per cent of control [13] of 90%, a kinase still bound, per cent of control [14] of 100% and a kinase still bound, per cent of control [15] of 30%. For the same molecule, the kinase still bound, per cent of control [16] was 100%, the kinase still bound, per cent of control [17] was 79% and the kinase still bound, per cent of control [18] was 96%. For the same molecule, the kinase still bound, per cent of control [19] was 86%, the kinase still bound, per cent of control [20] was 84% and the kinase still bound, per cent of control [21] was 82%. It also gave a kinase still bound, per cent of control [22] of 78%, a kinase still bound, per cent of control [23] of 12% and a kinase still bound, per cent of control [24] of 36%. For the same molecule, the kinase still bound, per cent of control [25] was 88%, the kinase still bound, per cent of control [26] was 88% and the kinase still bound, per cent of control [27] was 86%. The kinase still bound, per cent of control [28] was 94%, the kinase still bound, per cent of control [29] was 100% and the kinase still bound, per cent of control [30] was 100%. For the same molecule, the kinase still bound, per cent of control [31] was 100%, the kinase still bound, per cent of control [32] was 33% and the kinase still bound, per cent of control [33] was 77%. For the same molecule, the kinase still bound, per cent of control [34] was 79% and the kinase still bound, per cent of control [35] was 93%.

With CCN1CCN(Cc2ccc(NC(=O)c3ccc(C)c(/C=C/c4cnc5[nH]ccc5c4OC)c3)cc2C(F)(F)F)CC1 the kinase still bound, per cent of control [1] was 36%, the kinase still bound, per cent of control [2] was 100% and the kinase still bound, per cent of control [3] was 38%. The kinase still bound, per cent of control [4] was 100%, the kinase still bound, per cent of control [5] was 0.1% and the kinase still bound, per cent of control [6] was 28%. The kinase still bound, per cent of control [7] was 100%, the kinase still bound, per cent of control [8] was 3.2% and the kinase still bound, per cent of control [9] was 48%. The kinase still bound, per cent of control [10] was 87%, the kinase still bound, per cent of control [11] was 17% and the kinase still bound, per cent of control [12] was 0.5%. The kinase still bound, per cent of control [13] was 3.4%, the kinase still bound, per cent of control [14] was 54% and the kinase still bound, per cent of control [15] was 0.15%. The kinase still bound, per cent of control [16] was 0.75%, the kinase still bound, per cent of control [17] was 100% and the kinase still bound, per cent of control [18] was 62%. It also gave a kinase still bound, per cent of control [19] of 95%, a kinase still bound, per cent of control [20] of 0.15% and a kinase still bound, per cent of control [21] of 0.2%. The kinase still bound, per cent of control [22] was 0%, the kinase still bound, per cent of control [23] was 0.15% and the kinase still bound, per cent of control [24] was 31%. The kinase still bound, per cent of control [25] was 2.7%, the kinase still bound, per cent of control [26] was 100% and the kinase still bound, per cent of control [27] was 59%. It also gave a kinase still bound, per cent of control [28] of 100%, a kinase still bound, per cent of control [29] of 0.75% and a kinase still bound, per cent of control [30] of 40%. For the same molecule, the kinase still bound, per cent of control [31] was 0%, the kinase still bound, per cent of control [32] was 1.5% and the kinase still bound, per cent of control [33] was 73%. For the same molecule, the kinase still bound, per cent of control [34] was 21% and the kinase still bound, per cent of control [35] was 84%.

Molecule C=CC(=O)Nc1ccc(C(=O)c2sc(Nc3ccc(N4CCN(C)CC4)cc3OC)nc2N)cc1 has a kinase still bound, per cent of control [1] of 70%, a kinase still bound, per cent of control [2] of 100% and a kinase still bound, per cent of control [3] of 72%. It also gave a kinase still bound, per cent of control [4] of 100%, a kinase still bound, per cent of control [5] of 38% and a kinase still bound, per cent of control [6] of 73%. For the same molecule, the kinase still bound, per cent of control [7] was 0%, the kinase still bound, per cent of control [8] was 3.8% and the kinase still bound, per cent of control [9] was 24%. It also gave a kinase still bound, per cent of control [10] of 73%, a kinase still bound, per cent of control [11] of 76% and a kinase still bound, per cent of control [12] of 98%. It also gave a kinase still bound, per cent of control [13] of 87%, a kinase still bound, per cent of control [14] of 50% and a kinase still bound, per cent of control [15] of 89%. For the same molecule, the kinase still bound, per cent of control [16] was 37%, the kinase still bound, per cent of control [17] was 71% and the kinase still bound, per cent of control [18] was 100%. It also gave a kinase still bound, per cent of control [19] of 37%, a kinase still bound, per cent of control [20] of 100% and a kinase still bound, per cent of control [21] of 74%. For the same molecule, the kinase still bound, per cent of control [22] was 96%, the kinase still bound, per cent of control [23] was 100% and the kinase still bound, per cent of control [24] was 39%. The kinase still bound, per cent of control [25] was 100%, the kinase still bound, per cent of control [26] was 68% and the kinase still bound, per cent of control [27] was 43%. For the same molecule, the kinase still bound, per cent of control [28] was 45%, the kinase still bound, per cent of control [29] was 42% and the kinase still bound, per cent of control [30] was 83%. The kinase still bound, per cent of control [31] was 100%, the kinase still bound, per cent of control [32] was 68% and the kinase still bound, per cent of control [33] was 0.55%. For the same molecule, the kinase still bound, per cent of control [34] was 100% and the kinase still bound, per cent of control [35] was 100%.

N#Cc1cc(-c2ccnc(Nc3ccc(-n4cnc(-c5cccnc5)n4)cc3)n2)cc(N2CCOCC2)c1 gave a kinase still bound, per cent of control [1] of 50%, a kinase still bound, per cent of control [2] of 100% and a kinase still bound, per cent of control [3] of 86%. It also gave a kinase still bound, per cent of control [4] of 100%, a kinase still bound, per cent of control [5] of 93% and a kinase still bound, per cent of control [6] of 100%. It also gave a kinase still bound, per cent of control [7] of 100%, a kinase still bound, per cent of control [8] of 100% and a kinase still bound, per cent of control [9] of 100%. It also gave a kinase still bound, per cent of control [10] of 60%, a kinase still bound, per cent of control [11] of 76% and a kinase still bound, per cent of control [12] of 93%. It also gave a kinase still bound, per cent of control [13] of 27%, a kinase still bound, per cent of control [14] of 12% and a kinase still bound, per cent of control [15] of 48%. The kinase still bound, per cent of control [16] was 3.8%, the kinase still bound, per cent of control [17] was 21% and the kinase still bound, per cent of control [18] was 49%. It also gave a kinase still bound, per cent of control [19] of 11%, a kinase still bound, per cent of control [20] of 7.8% and a kinase still bound, per cent of control [21] of 48%. The kinase still bound, per cent of control [22] was 79%, the kinase still bound, per cent of control [23] was 86% and the kinase still bound, per cent of control [24] was 88%. For the same molecule, the kinase still bound, per cent of control [25] was 70%, the kinase still bound, per cent of control [26] was 72% and the kinase still bound, per cent of control [27] was 22%. The kinase still bound, per cent of control [28] was 0.25%, the kinase still bound, per cent of control [29] was 20% and the kinase still bound, per cent of control [30] was 100%. It also gave a kinase still bound, per cent of control [31] of 89%, a kinase still bound, per cent of control [32] of 40% and a kinase still bound, per cent of control [33] of 12%. The kinase still bound, per cent of control [34] was 80% and the kinase still bound, per cent of control [35] was 100%.
